Results reported in patent US20140087945A1, “SUBSTITUTED 4-CYAN-3-(2,6-DIFLUOROPHENYL)-4-PHENYLBUTANOATES, METHOD FOR THE PRODUCTION THEREOF AND USE THEREOF AS HERBICIDES AND PLANT GROWTH REGULATORS” (Bayer Intellectual Property GmbH, priority 2011, published 2014).

How the values were obtained:
[1] = test system: a plurality of harmful plants; experiment: Herbicidal post-emergence action, greenhouse pot test; type: in vivo; conditions: post-emergence method
Method: Seeds of monocotyledonous and dicotyledonous weed and crop plants are placed in sandy loam in wood-fiber pots, covered with soil and cultivated in a greenhouse under good growth conditions. 2 to 3 weeks after sowing, the test plants are treated at the one-leaf stage, where the compounds (I) according to the invention, formulated in the form of wettable powders (WP), are applied by spraying as aqueous suspension or emulsion at a water application rate of 600 l/ha (converted) with the addition of 0.2% of wetting agent to the green parts of the plants. After the test plants have been kept in the greenhouse under optimum growth conditions for about 3 weeks, the activity of the preparations is rated visually in comparison to untreated controls in percent (%): For example, 100% activity=the plants have died, 50% herbicidal activity or damage=the plants have been reduced by 50% or the plant mass has been reduced by 50%, 0% activity=like control plants.

[2] = test system: a plurality of harmful plants; experiment: Herbicidal pre-emergence action, greenhouse pot test; type: in vivo; conditions: pre-emergence method; application rate of 320 g or less of active substance per hectare
Source text: Seeds of monocotyledonous and dicotyledonous weed plants and crop plants are placed in wood-fiber pots in sandy loam and covered with soil. The compounds (I) according to the invention, formulated in the form of wettable powders (WP), are then applied as aqueous suspension or emulsion at a water application rate of 600 l/ha (converted) with the addition of 0.2% of wetting agent to the surface of the covering soil. After the treatment, the pots are placed in a greenhouse and kept under good growth conditions for the test plants. After about 3 weeks, the effect of the preparations is scored visually in comparison with untreated controls as percentages. For example, 100% activity=the plants have died, 50% herbicidal activity or damage=the plants have been reduced by 50% or the plant mass has been reduced by 50%, 0% activity=like control plants.

Structure (SMILES) | herbicidal activity against a plurality of harmful plants [1] | herbicidal activity against a plurality of harmful plants [2]
COC(=O)CC(c1c(F)cccc1F)C(C#N)c1ccc(F)cc1 (mixture of isomers) [Example 1-3] | good herbicidal activity | good herbicidal activity
COC(=O)CC(c1c(F)cccc1F)C(C#N)c1ccc(Cl)cc1 (mixture of isomers) [Example 1-6] | good herbicidal activity | good herbicidal activity
COC(=O)CC(c1c(F)cccc1F)C(C#N)c1cc(F)cc(F)c1 (mixture of isomers) [Example 1-12] | good herbicidal activity | good herbicidal activity
COC(=O)CC(c1c(F)cccc1F)C(C#N)c1ccc(F)c(Cl)c1 (mixture of isomers) [Example 1-15] | good herbicidal activity | good herbicidal activity
COC(=O)CC(c1c(F)cccc1F)C(C#N)c1ccc(Cl)c(Cl)c1 (mixture of isomers) [Example 1-16] | good herbicidal activity | good herbicidal activity
COC(=O)CC(c1c(F)cccc1F)C(C#N)c1cccc(I)c1 (mixture of isomers) [Example 1-19] | good herbicidal activity | good herbicidal activity
COC(=O)CC(c1c(F)cccc1F)C(C#N)c1ccccc1OC (mixture of isomers) [Example 1-24] | good herbicidal activity | good herbicidal activity
COC(=O)CC(c1c(F)cccc1F)C(C#N)c1ccc(OC)cc1 (mixture of isomers) [Example 1-26] | good herbicidal activity | good herbicidal activity
COC(=O)CC(c1c(F)cccc1F)C(C#N)c1ccc(OC)c(OC)c1 (mixture of isomers) [Example 1-27] | good herbicidal activity | good herbicidal activity
COC(=O)CC(c1c(F)cccc1F)C(C#N)c1ccc(OC)c(F)c1 (mixture of isomers) [Example 1-28] | good herbicidal activity | good herbicidal activity
COC(=O)CC(c1c(F)cccc1F)C(C#N)c1ccc(C(F)(F)F)c(F)c1 (mixture of isomers) [Example 1-29] | good herbicidal activity | good herbicidal activity
COC(=O)CC(c1c(F)cccc1F)C(C#N)c1cc(F)cc(C(F)(F)F)c1 (mixture of isomers) [Example 1-30] | good herbicidal activity | good herbicidal activity
N#CC(c1cc(F)cc(C(F)(F)F)c1)C(CC(=O)O)c1c(F)cccc1F (mixture of isomers) [Example 1-228] | good herbicidal activity | good herbicidal activity
COC(=O)CC(c1c(F)cccc1F)C(C#N)c1ccc(F)c(Br)c1 (mixture of isomers) [Example 1-232] | good herbicidal activity | good herbicidal activity
COC(=O)CC(c1c(F)cccc1F)C(C#N)c1ccc(F)c(C#N)c1 (mixture of isomers) [Example 1-233] | good herbicidal activity | good herbicidal activity
COC(=O)CC(c1c(F)cccc1F)C(C#N)c1ccc2ccccc2c1 (mixture of isomers) [Example 1-235] |  | good herbicidal activity
COC(=O)CC(c1c(F)cccc1F)C(C#N)c1ccc(F)c(F)c1 (stereo not drawn) [Example 1-11, methyl 4-cyano-3-(2,6-difluorophenyl)-4-(3,4-difluorophenyl)butanoate] |  | good herbicidal activity
N#CC(c1ccc(F)c(F)c1)C(CC(=O)O)c1c(F)cccc1F (stereo not drawn) [Example 1-106, 4-Cyano-3-(2,6-difluorophenyl)-4-(3,4-difluorophenyl)butanoic acid] | good herbicidal activity | good herbicidal activity
COC(=O)CC(c1c(F)cccc1F)C(C#N)c1ccc(F)c(F)c1 (stereo not drawn) [Example 1-230, methyl erythro-4-cyano-3-(2,6-difluorophenyl)-4-(3,4-difluorophenyl)butanoate] | good herbicidal activity | good herbicidal activity
COC(=O)CC(c1c(F)cccc1F)C(C#N)c1ccc(F)c(F)c1 (stereo not drawn) [Example 1-231, methyl threo-4-cyano-3-(2,6-difluorophenyl)-4-(3,4-difluorophenyl)-butanoate] |  | good herbicidal activity
COC(=O)C[C@@H](c1c(F)cccc1F)[C@@H](C#N)c1ccc(F)c(F)c1 [Example 2-11, Methyl (3R,4R)-4-cyano-3-(2,6-difluorophenyl)-4-(3,4-difluorophenyl)-butanoate] | good herbicidal activity | good herbicidal activity
COC(=O)C[C@@H](c1c(F)cccc1F)[C@@H](C#N)c1ccc(F)c(Cl)c1 [Example 2-15] |  | good herbicidal activity
CCOC(=O)C[C@@H](c1c(F)cccc1F)[C@@H](C#N)c1ccc(F)c(F)c1 [Example 2-107, Ethyl (3R,4R)-4-cyano-3-(2,6-difluorophenyl)-4-(3,4-difluorophenyl)-butanoate] | good herbicidal activity | good herbicidal activity
COC(=O)C[C@@H](c1c(F)cccc1F)[C@@H](C#N)c1ccc(F)c(Br)c1 [Example 2-229] | good herbicidal activity | good herbicidal activity
COC(=O)C[C@@H](c1c(F)cccc1F)[C@@H](C#N)c1ccc(F)c(C#N)c1 [Example 2-230] | good herbicidal activity | 
